Experimental findings from a melting point compilation (Tetko et al.; mined from patent text by program, amines drawn as free bases though some values may be those of a salt) are described below.

The structures appear in SMILES notation.

The compound `COC1(Cl)C=CC=CC1Oc1c(Cl)ncnc1Cl` (stereo not drawn) came in with a melting point of 88 to 89 °C.

For `CC(C)C(c1ccc(O)cc1)N1CCOCC1` (stereo not drawn), the melting point lay within 142 to 143 °C. To `Cc1cc(=O)[nH]c(=S)n1C1CCCCC1` belongs 240 to 243 °C; to `CNc1cc(Oc2cccc(C(F)(F)F)c2)nc(C(=O)NC(C)C)c1`, 89 to 90 °C; to `CCOC(=O)[C@H](Cc1ccc(Nc2nccc3ccncc23)cc1)NC1=CC(=O)C12CCOCC2`, 112 °C. As for `CCCCCCCCCCOc1ccc2c(c1CCC)OC(CCC(=O)O)(CCC(=O)O)CC2=O`, the figure is 144 to 146 °C. In turn, `CSc1nc(-c2cccnc2)n(-c2ccc(C)c(C)c2)c(=O)c1C#N` gave a melting point greater than 250 °C. Consider `COc1ccc(-c2cc(Cl)cc3c2NC(CN)CO3)c(C)c1` (stereo not drawn), for which the melting point came to 98 °C.

`CC(=O)C(=Cc1cc([N+](=O)[O-])cc([N+](=O)[O-])c1)C(C)=O` displayed a melting point of 101 to 105 °C. To `CC(=O)Nc1ccc(N2CCN(Cc3ccccc3)CC2)cc1` belongs 159 to 161 °C; to `Nc1ccc(Sc2ccccn2)cc1C(F)(F)F`, 132 to 133 °C. The compound `O=C1c2c(oc3ccccc23)-c2ccc(O)c3cccc1c23` gave a melting point of 374 °C. To `CN(C)c1ccc(NC(=O)N(CC2CCCC(CN(C(=O)Nc3ccc(N(C)C)cc3)C3CC4CCC3C4)C2)C2CC3CCC2C3)cc1` (stereo not drawn) belongs 110 to 115 °C. To `CN1Cc2c(C#Cc3ccccc3)ncn2-c2cccc(Br)c2C1=O` belongs 207 to 209 °C; to `O=C(NCC(O)(Cn1cncn1)c1ccc(Cl)cc1Cl)c1cccnc1` (stereo not drawn), 175 °C. Consider `Cc1c(C(=O)Nc2ccc(N3CCCCC3)c(C#N)c2)cnn1-c1ccc(F)cc1`, for which the melting point is 196 to 197 °C.

With `CCOC(=O)CN(CP(=O)(ONC1CCCCC1)ONC1CCCCC1)C(=O)C(F)(F)F`, the melting point fell in the range of 118 to 123 °C. Consider `CCNC(=O)n1nc(Oc2ncc(C(F)(F)F)cc2Cl)cc1C(F)(F)F`, for which the melting point was in the range of 52 to 54 °C. Regarding `CC(=O)Nc1ccc2c(c1)NC(=O)C2=C(C)C`, the melting point was determined as 93 °C. Compound `CCCC(=O)Nc1cccc(N(CCO)CCO)c1` came in with a melting point of 88 to 90 °C. As for `O=C(c1ccccc1)c1cnn2c(-c3ccccc3)ccnc12`, the figure is 163 to 165 °C. As for `Cc1noc(NS(=O)(=O)c2ccccc2-c2ccc(-c3ncco3)cc2CN(C)C(=O)C(C)(C)c2ccccc2)c1C`, the figure is 130 to 138 °C; as for `CC(C(=O)O)c1ccc(CC2CCCC2=O)cc1` (stereo not drawn), 108 to 111 °C; as for `CN1CCN(Cc2ccc(COc3cccc4c3CN(C3CCC(=O)NC3=O)C4=O)cc2)CC1` (stereo not drawn), 188 to 190 °C. To `CCCOc1ccc(S(C)(=O)=O)cc1C(=O)O` belongs 148 to 152 °C; to `N#Cc1nc(-c2cnn(-c3ccc(C(F)(F)F)cc3[N+](=O)[O-])c2Br)[nH]c1C#N`, 86 to 90 °C. As for `Cn1nnc(-c2cc3c(Oc4ccc(Cl)cc4)cncc3s2)n1`, the melting point was 131 to 133 °C.

With `O=C(NNc1ccccc1C(F)(F)F)c1c(F)cccc1F`, the melting point was in the range of 129 to 130 °C.

`COc1ccc(N2CCN(C(=O)C(C)(C)C3OCCc4ccccc43)CC2)cc1` (stereo not drawn) registered a melting point of 120 to 121 °C. To `O=C(CN1CC(F)(F)Cn2c1nc(-c1ccncn1)cc2=O)c1ccccc1` belongs 233 to 234 °C; to `ON=C1Cc2ccccc2C=Cc2ccccc21`, 191 to 192 °C. As for `CC(=O)OC1OCC[C@@H]1NC(=O)[C@H](Cc1ccccc1)NC(=O)OC(C)(C)C` (stereo partly drawn), the figure is 156 to 157 °C; as for `CCC(=O)C1=C(O)CC(c2c(C)cc(C)cc2C)CC1=O` (stereo not drawn), 86 to 88 °C; as for `COc1ccc(F)cc1OCCN1C(=O)c2ccccc2C1=O`, 134 to 136 °C. To `CC1(C)NCC(=O)N1CC(N)=O` belongs 144 to 146 °C. `CCCCc1nc(C(F)(F)CCC)nn1Cc1ccc(-c2ccccc2-c2nnn[nH]2)cc1` yielded a melting point of 165 to 168 °C.

`COC(=O)C1=C(O)c2cc(Cl)sc2S(=O)(=O)N1` showed a melting point of 173 to 174 °C.

In turn, `CC(=O)Oc1cccc2[nH]ccc12` displayed a melting point of 97 to 98 °C. As for `Nc1nc2c(sc(=O)n2Cc2ccc(Br)cc2)c(=O)[nH]1`, the figure is greater than 320 °C; as for `CC(=O)N1CC(CCN2CCC(c3ccccc3)CC2)c2cc3c(cc21)OCO3` (stereo not drawn), 101 to 103 °C. As for `CN(c1ccccc1-c1ccc2cnc(Nc3ccc(N4CCN(CC(N)=O)CC4)c(F)c3)nn12)S(C)(=O)=O`, the figure is 148 °C; as for `Cc1cc(C(=O)O)ccc1-c1cnc2[nH]c(=O)n(CC3CCCCC3)c2n1`, 244 to 247 °C. As for `CCCC1=NN(c2ccc(C#N)cc2)C(=O)C1=CNc1ccccc1CC`, the figure is 197 °C; as for `Cn1c(C(F)(F)F)c([N+](=O)[O-])c2ccc(Cl)cc21`, 157 to 160 °C. Compound `C(=Nc1onc2c1CCC2)c1ccccc1` registered a melting point of 166 °C. Compound `CC(CCC(=O)O)(c1ccc(OCc2ccc3ccccc3c2)cc1)c1ccc(OCc2ccc3ccccc3n2)cc1` (stereo not drawn) displayed a melting point of 64 to 68 °C. Regarding `COc1ccc(CC(=O)N2CCC3(CC2)Cc2ccccc2O3)cc1`, the melting point was in the range of 87 to 88 °C.

As for `CCCCCCCCN(C)C(=O)CC(=O)N(C)CCCCCCCC`, the melting point was 41 °C. As for `CCOCc1cc2cc(Br)ccc2oc1=Nc1cccc(OC)c1`, the figure is 93 to 94 °C; as for `COc1cccc2c1CCNCC2`, 44.3 to 45 °C. To `COCCOc1ccc([N+](=O)[O-])cc1I` belongs 35 to 36 °C. To `O=C(O)CCCC(=O)NCCCCCC1CCSS1` (stereo not drawn) belongs 60 to 62 °C; to `CNCC1=C(C#N)C(c2cccc(C#N)c2Br)c2c[nH]nc2N1` (stereo not drawn), 258 °C; to `COC(=O)c1ccccc1-c1cc(-c2cccc(C(F)(F)F)c2)no1`, 46 to 48 °C. Compound `NC(=O)C(=O)NCCC(F)=C(F)F` returned a melting point of 190 to 220 °C.

Turning to `COc1nc(NC(COC(=O)NC(C)C)C(C)(C)C)nc(OC)c1[N+](=O)[O-]` (stereo not drawn), the melting point worked out at 110 °C. For the compound `CCCCCOC(=O)Cc1nc(-c2ccccc2)oc1-c1ccsc1`, the melting point was in the range of 61 to 62 °C. As for `COC(=O)C#CC(=O)c1cc(OC)ccc1OC`, the figure is 70 to 71 °C; as for `CCc1cn(C2OC(CO)C(O)C2O)c(=O)[nH]c1=O` (stereo not drawn), 180 to 181 °C; as for `Cc1sc2c(Br)c3ccccc3c(-c3ccc(O)c(N)c3)c2c1C`, 173 to 175 °C. As for `O=C1c2ccccc2C(=O)N1CCSc1ccc(O)cc1`, the figure is 124 to 125 °C; as for `Cc1nnc2n1-c1sc3c(c1C(c1ccccc1Cl)=NC2)CCN(C(=S)NCc1ccccc1C(F)(F)F)C3`, 178 to 184 °C. As for `CN(C)c1ccc(NC(=O)Nc2ccc3c(ccn3C)c2)cn1`, the figure is 220 to 226 °C; as for `O=C(NC1CCN(c2ccccc2)C1)c1ccc([N+](=O)[O-])cc1` (stereo not drawn), 153 to 155 °C; as for `COc1cc(C=C2NC(=O)NC2=O)cc(OC)c1OC`, 266 to 268 °C. `CCOC(=O)c1cccc(-c2ccc3c(c2)C(=O)CCC3)c1` showed a melting point of 89 to 90 °C. As for `CC(C)n1c(=O)nc(-c2ccc3c(c2)OCO3)c2cc3c(cc21)OCO3`, the figure is 125 to 127 °C. The compound `CC(C)Oc1cccc(CC(=O)N2CCC(CCN3CCC(C(=O)c4nc5ccccc5n4Cc4ccc(F)cc4)CC3)(c3ccc4c(c3)OCO4)C2)c1` (stereo not drawn) displayed a melting point of 73 to 76 °C. To `CSc1sc(C(=O)N2CCCCCC2)c2c1C(=O)CC(C)(C)C2` belongs 168 to 170 °C; to `COC(=O)c1c(F)cc(OCCNC(=O)C2Cc3ccccc3N2S(=O)(=O)c2ccc(-c3ccc(F)cc3OC)cc2)cc1F` (stereo not drawn), 65 to 76 °C; to `N#CC1OC(COC(=O)c2ccccc2)C(OC(=O)c2ccccc2)C1OC(=O)c1ccccc1` (stereo not drawn), 77 to 78 °C. As for `COc1c(C#C[Si](C)(C)C)cc(-n2ccc(=O)[nH]c2=O)cc1-c1ccc2cc(NS(C)(=O)=O)ccc2c1`, the figure is 175 to 178 °C. To `C[C@H]1CC[C@H]2C(C)(C)[C@H](OS(=O)(=O)c3ccccc3)CC[C@]23Oc2c(c(O)cc4c2CNC4=O)C[C@]13C` belongs 160 to 162 °C; to `CCCCn1nc2c(N)nc3ccccc3c2c1CCCS(=O)(=O)c1ccccc1`, 206 to 207 °C; to `O=C(NO)c1ccccn1`, 58 to 68 °C. As for `O=C(Nc1ccc(C(F)(F)F)cc1)C(Cl)=NNc1ccc(Cl)cc1`, the melting point lay in the range of 167 to 168 °C.

Take `Cc1ccc(Cn2nc(C(=O)NC3CCCCC3C)cc2-c2ccc(Cl)c(Cl)c2)cc1Cl` (stereo not drawn): the melting point is 165 °C.

For `Cc1ccnc(N2CCN(CCc3c(C)n4c5c(cc(C(O)C(C)C)cc35)CCC4)CC2)c1` (stereo not drawn), the melting point stood at 140 °C.

For `CC(C)(C)C1NN(c2ccc(N)cc2Br)C(=O)O1` (stereo not drawn), the melting point is 170 to 172 °C. As for `C=CCc1cc(C(=O)OCC)ccc1OCC1(O)CN2CCC1CC2` (stereo not drawn), the figure is 143 to 145 °C. In turn, `CC(C)(C)c1ccc(NC(=O)c2ccccc2SSc2ccccc2C(=O)Nc2ccc(C(C)(C)C)cc2)cc1` showed a melting point of 135 to 138 °C. As for `N#CC(N)C(=O)c1ccc(C=O)cc1` (stereo not drawn), the figure is 122 to 125 °C; as for `Cc1cccc(Nc2ccccc2-c2n[nH]c(=O)o2)c1C`, 239 to 241 °C. To `CN(c1cccc2cc(-c3nccs3)[nH]c12)S(=O)(=O)c1cccs1` belongs 201 to 202 °C; to `COC(=O)C1=C(O)c2c(c3ccccc3n2C)S(=O)(=O)N1C`, 189 to 190 °C. As for `CC(=O)Nc1ccc2[nH]c(CO)cc2c1`, the figure is 161 °C; as for `CC(=O)NCc1cc(CCC(=O)O)no1`, 134 °C. In turn, `COc1ccc(Cn2c(C)nc3c(Cl)ncnc32)cc1` gave a melting point of 121 to 123 °C.
